Test results: patent publication US20250290915A1, “METHOD FOR PREDICTING RESPONSIVENESS TO THERAPY” (CANCERTAIN LIMITED, priority 2022, published 2025)

Experiments:
Format in all cases: cell-based, human
[1] = system: Circulating Tumour Cells (CTCs) from a patient with rectal cancer (anorectal carcinoma with secondary lung cancer); experiment: Drug response score assay on CTCs (with CD45+ cells for immunotherapy) from blood, Example 3; settings: for Drug response score, conc. 1: conc. 1: Pembro 20 μg/ml, Nivo 20 μg/ml (CTCs + CD45+ cells), Lenva 50 ng/ml, Regor 60 μg/ml (CTCs); for Drug response score, conc. 1 / Drug response score, conc. 2 / Drug response score, conc. 3 / Drug response score, conc. 4: t96h; for Drug response score, conc. 2: conc. 2: Pembro 40 μg/ml, Nivo 40 μg/ml (CTCs + CD45+ cells), Lenva 100 ng/ml, Regor 80 μg/ml (CTCs); for Drug response score, conc. 3: conc. 3: Pembro 100 μg/ml, Nivo 80 μg/ml (CTCs + CD45+ cells), Lenva 200 ng/ml, Regor 120 μg/ml (CTCs); for Drug response score, conc. 4: conc. 4: Pembro 160 μg/ml, Nivo 160 μg/ml (CTCs + CD45+ cells), Lenva 400 ng/ml, Regor 160 μg/ml (CTCs); for effectiveness on Circulating Tumour Cells under laboratory conditions / Drug sensitivity as calculated by the assay (interpretation of Drug Response Scores): rectal cancer CTCs; for Drug sensitivity as calculated by the assay (interpretation of Drug Response Scores): Table 11
Description: CD45^+ cells and circulating tumour cells (CTCs) were isolated from a blood sample provided by each subject.
CD45 separation was performed by adding human CD45 microbeads (50 μl/ml blood), incubating for 15 minutes at 4° C. and then processing using an AutoMACS machine. This separates the blood sample into CD45^+ and CD45^−cells in 2 separate falcons. The falcon tubes are then centrifuged at 1200 rpm for 5 minutes.
The supernatant was removed from the CD45^+falcon tube, and the cells resuspended in DMEM with 2 μl Cell Tox, 2 μl MT and 2 μl MT. 20 μl of the resuspended CD45^+ cells was then plated in each well which will contain an immunotherapy treatment.
The supernatant was removed from the CD45^−falcon tube, and the CD45^−cells contacted with 100 μl of FcR block and 100 μl of CD326 (EpCAM) MicroBeads, followed by incubation at […] 4° C. for 30 minutes. The CD45^−cells were then processed using an AutoMACS machine to separate the EpCAM positive and negative cells into 2 separate falcon tubes. The EpCAM-cells were discarded. The supernatant was removed from the EpCAM^+ cells, and the cells resuspended in DMEM with 2 μl Cell Tox, 2 μl MT and 2 μl MT. 20 μl of the resuspended pellet was then added to all sample wells excluding a blank. After all wells are added to, a cell count was conducted on the […] to determine the number of circulating tumour cells (CTCs).
The different cell types were each divided equally into populations, depending on the number of drugs/concentrations to be tested and plated on a cell-culture plate pre-coated with a scaffold of polycaprolactone (PCL) electrospun fibres and incubated at 37° C., 5% CO2, for 5 to (typically 10) minutes to facilitate cell attachment. After attachment, an initial imaging step was carried out using the RealTime-Glo™ MT assay from Promega (Catalogue No. G9711)) and the CellTox™ Green Cytotoxicity Assay (Promega, Catalogue No. G8741), carried out according to manufacturer's instructions. Following this initial imagining, the immunotherapeutic and/or chemotherapeutic agents were added to the cell populations as indicated below. After 10 minutes, the imagining step was repeated. The cell populations were then incubated at 37° C., 5% CO2 for 48 hours. The imaging step was then repeated. The cell populations were then re-dosed with the same immunotherapeutic and/or chemotherapeutic agents as indicated below, and incubated at 37° C., 5% CO2 for a further 48 hours. After this second 48 hour incubation, the imagining step was repeated for a final time.
At the end of this culture period, dose response scores were calculated using a normalized drug response metric as described in Gupta et al. (Communications Biology volume 3, Article number: 42 (2020), https://doi.org/10.1038/s42003-020-0765-z). The start readout for a given immunotherapeutic or chemotherapeutic agent at a given concentration was the to readout for said immunotherapeutic or chemotherapeutic agent at a specified concentration. The end readout for a given immunotherapeutic or chemotherapeutic agent at a given concentration was the final timepoint reading (t96h) for said immunotherapeutic or chemotherapeutic agent at a specified concentration.
The positive control start readout for a given drug/concentration was the to readout for the corresponding drug at a specified concentration. The positive control end readout for the corresponding drug at a specified concentration was the final timepoint reading (t96h) for the corresponding blank well.
The negative control start and end readouts for a given immunotherapeutic or chemotherapeutic agent at a given concentration were the to and final timepoint reading (t96h) respectively for blank cell or blank immuno cell well respectively.
The sensitivity or resistance of a subject's cancer to a given immunotherapeutic or chemotherapeutic agent was determined based on the calculated drug response score as shown in Table 2. […]

[2] = system: Circulating tumour cells (CTCs) from a patient with GI cancer (Cholangio Carcinoma, stage 4); experiment: Drug response score assay on blood sample, Example 9; design: key to Drug response score from blood sample, conc. 1 / Drug response score from blood sample, conc. 2 / Drug response score from blood sample, conc. 3 / Drug response score from blood sample, conc. 4: normalized drug response metric per Gupta et al. 2020; settings: for effectiveness on Circulating Tumour Cells under laboratory conditions: GI cancer (Cholangio Carcinoma) blood sample; for Drug response score from blood sample, conc. 1: conc. 1 of each drug as in Table 27; for Drug response score from blood sample, conc. 1 / Drug response score from blood sample, conc. 2 / Drug response score from blood sample, conc. 3 / Drug response score from blood sample, conc. 4: t96h; for Drug response score from blood sample, conc. 2: conc. 2 of each drug as in Table 27; for Drug response score from blood sample, conc. 3: conc. 3 of each drug as in Table 27; for Drug response score from blood sample, conc. 4: conc. 4 of each drug as in Table 27; for Drug sensitivity as calculated by the assay, Blood: interpretation based on Drug Response Scores; for Drug response score from blood sample, conc. 1 / Drug response score from blood sample, conc. 2 / Drug response score from blood sample, conc. 3 / Drug response score from blood sample, conc. 4 / Drug sensitivity as calculated by the assay, Blood: blood sample
Method in brief: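 CD45+ immune cells and EpCAM+ CTCs magnetically isolated from blood of a stage 4 cholangiocarcinoma patient previously treated with cisplatin and gemcitabine, then plated on PCL electrospun-fibre scaffold. Agents dosed at t0 and re-dosed at 48 h, 37° C, 5% CO2; viability and cytotoxicity read by RealTime-Glo MT and CellTox Green. Normalized drug response score computed from t0 and t96h readouts against blank-well controls.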

[3] = system: Circulating Tumour Cells (CTCs) from a patient with renal cancer; experiment: Drug response score assay on CTCs (with CD45+ cells for immunotherapy) from blood, Example 7; design: key to Drug response score, conc. 1 / Drug response score, conc. 2 / Drug response score, conc. 3 / Drug response score, conc. 4: normalized drug response metric per Gupta et al. 2020
Method in brief: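 CD45+ cells and EpCAM+ CTCs isolated from blood by magnetic beads, plated on PCL electrospun fibre scaffold with RealTime-Glo MT and CellTox Green reagents. Agents added, re-dosed at 48 h, 96 h total at 37° C., 5% CO2; imaging at t0 and 96 h gives normalized drug response score versus blank wells.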

## COc1cc2nccc(Oc3ccc(NC(=O)NC4CC4)c(Cl)c3)c2cc1C(N)=O [Lenvatinib]
[1]
  Drug response score, conc. 1: 2.0109
  Drug response score, conc. 2: 1.6409
  Drug response score, conc. 3: 0.8991
  Drug response score, conc. 4: 2.0235
  effectiveness on Circulating Tumour Cells under laboratory conditions: not effective
  Drug sensitivity as calculated by the assay (interpretation of Drug Response Scores): Resistant
[2]
  effectiveness on Circulating Tumour Cells under laboratory conditions: S+
  Drug response score from blood sample, conc. 1: 0.2851
  Drug response score from blood sample, conc. 2: 0.3155
  Drug response score from blood sample, conc. 3: 0.4097
  Drug response score from blood sample, conc. 4: 0.6214
  Drug sensitivity as calculated by the assay, Blood: S+

## Pembrolizumab
[1]
  Drug response score, conc. 1: 0.6167
  Drug response score, conc. 2: 0.4053
  Drug response score, conc. 3: 0.9748
  Drug response score, conc. 4: 0.7712
  effectiveness on Circulating Tumour Cells under laboratory conditions: Sensitive S+
  Drug sensitivity as calculated by the assay (interpretation of Drug Response Scores): Sensitive (S+)
[3]; conc. 1: Pembr 20 μg/ml (CTCs + CD45+ cells), Docetax 0.02 μg/ml, Gemcit 2 μg/ml, Topo 5 μg/ml, Etop 1 μg/ml, Eribul 5 μg/ml (CTCs), t96h
  Drug response score, conc. 1: −0.0194
[3]; conc. 2: Pembr 40 μg/ml (CTCs + CD45+ cells), Docetax 0.2 μg/ml, Gemcit 10 μg/ml, Topo 10 μg/ml, Etop 4 μg/ml, Eribul 10 μg/ml (CTCs), t96h
  Drug response score, conc. 2: 0.1577
[3]; conc. 3: Pembr 100 μg/ml (CTCs + CD45+ cells), Docetax 2 μg/ml, Gemcit 20 μg/ml, Topo 50 μg/ml, Etop 20 μg/ml, Eribul 20 μg/ml (CTCs), t96h
  Drug response score, conc. 3: 0.0468
[3]; conc. 4: Pembr 160 μg/ml (CTCs + CD45+ cells), Docetax 10 μg/ml, Gemcit 40 μg/ml, Topo 100 μg/ml, Etop 100 μg/ml, Eribul 40 μg/ml (CTCs), t96h
  Drug response score, conc. 4: −0.0364
[3]; renal cancer CTCs
  effectiveness on Circulating Tumour Cells under laboratory conditions: Sensitive S+
[3]; renal cancer CTCs, Table 23
  Drug sensitivity as calculated by the assay (interpretation of Drug Response Scores): Sensitive (S+)
[2]
  effectiveness on Circulating Tumour Cells under laboratory conditions: S+
  Drug response score from blood sample, conc. 1: 0.00068
  Drug response score from blood sample, conc. 2: 0.1572
  Drug response score from blood sample, conc. 3: 1.041
  Drug response score from blood sample, conc. 4: 0.6989
  Drug sensitivity as calculated by the assay, Blood: S+

## Nivolumab
[1]
  Drug response score, conc. 1: 0.4990
  Drug response score, conc. 2: 0.6429
  Drug response score, conc. 3: 0.6261
  Drug response score, conc. 4: 1.0807
  effectiveness on Circulating Tumour Cells under laboratory conditions: Sensitive S+
  Drug sensitivity as calculated by the assay (interpretation of Drug Response Scores): Sensitive (S+)
[2]
  Drug response score from blood sample, conc. 1: 1
  Drug response score from blood sample, conc. 2: 0.2783
  Drug response score from blood sample, conc. 3: 1.061
  Drug response score from blood sample, conc. 4: 1.046
